According to patent US10183014B2, “Ocular formulations for drug-delivery and protection of the anterior segment of the eye” (PanOptica, Inc., priority 2014, dated 2019):

Key:
hTCEpi cells = assay: Cell migration/proliferation (in vitro wound healing) in hTCEpi cells: compound and second active agent; format: cell-based; settings: 0.3 μM menadione
Method: Determination of cell migration/proliferation in corneal epithelial cells is run to determine cell migration/proliferation in the presence of varying concentrations of a compound of Formula I or II, vitamin K, or nicotinic acid/nicotinamide. Cells are plated with silicone plugs. The cells are then serum starved and pre-treated with varying concentrations of a compound of Formula I or II or a control. The plugs are removed and the cells are treated with 1) EGF, 2) EGF and vitamin K or 3) EGF and nicotinic acid/nicotinamide. Cell migration is quantified from micrographs.
hTCEpi cells were plated with silicone plugs. The cells were then serum starved and pre-treated with varying concentrations of vitamin K3 analog, menadione, for 4 hours and supplemented with the varying concentrations of a compound of Formula I or II for 30 minutes. The plugs were removed. The cells were photographed and then treated with various concentrations of vitamin K, EGF, and/or a compound of Formula I or II. The cells were again photographed and cell migration was quantified from the micrographs. Additional controls run included no compound of Formula I or II and no EGF. All experiments were repeated three times.

corneas of C57/Bl mice = assay: Corneal wound healing in vivo with a second active agent; settings: 0.3 μM menadione, 48 hours pre-treatment
Method: Determination of the effects of a compound of Formula I or II and/or a second active agent on corneal wound healing was determined in mice. Corneas of C57/Bl mice are wounded and then pre-treated with a compound of Formula I or II, followed by addition of EGF, vitamin K, or nicotinic acid/nicotinamide. Wound size and closure are monitored.
Corneas of 8 week old C57/Bl mice were pre-treated with topical administration of vehicle, 0.3 μM menadione, 10 μM of a compound of Formula I or II, 0.3 μM menadione and 10 μM of a compound of Formula I or II 48 hours before the corneas were wounded (1.5 mm superficial epithelial wound). Wound size was monitored by fluorescein staining and fluorescent photography. Wound closure was monitored over the course of 40 hours.

EGFR [1] = molecular target: T1, EGFR (Homo sapiens, UniProt P00533); assay: EGFR tyrosine phosphorylation assay in hTCEpi cells with a second active agent; format: cell-based; settings: vitamin K 50 μM, nicotinic acid 10 μM or nicotinamide 10 μM, 4 hours pre-treatment, EGF 50 ng/ml
T1 construct: endogenous in cells; host or cells: hTCEpi (immortalized corneal epithelial cells)
Method: An EGFR tyrosine assay in corneal epithelial cells is run to determine if Vitamin K or nicotinic acid/nicotinamide can overcome inhibition of EGFR and if there is an increase in EGFR activity. […] Cells are harvested cells and immunoblotted for determination of phosphorylated EGFR (tyrosine 1068 and tyrosine 1045) and total EGFR concentration which was used to determine receptor activity (IC50).
The cells were then incubated with EGF (50 ng/ml) for 15 minutes. Cells were harvested and cell lysates were immunoblotted for determination of phosphorylated EGFR (tyrosine 1068 and tyrosine 1045) and total EGFR concentration.

[2] = Particle size distribution by laser diffraction light scattering; format: physicochemical; settings: 5% menadione, HPMC formulation, roller milled; 40° C.
Method: Particle size distribution can be analyzed using laser diffraction light scattering, e.g., with a Horiba LA-950 V2. Generic assumptions are made in setting conditions and the refractive index value. The distributions are volume based. Sample density is adjusted to a generic range of percent transmission on the blue LED light source. A small sample cell (filled with water) can be used rather than the flow through cell, to minimize sample quantity.
Particle size distribution was analyzed using laser diffraction light scattering with a Horiba LA-950 V2. Generic assumptions were made in setting conditions and the refractive index value. The distributions were volume based. Sample density was adjusted to a generic range of percent transmission on the blue LED light source. A small sample cell (filled with water) was used rather than the flow through cell, to minimize sample quantity.

EGFR [3] = molecular target: T1, EGFR; assay: Mechanism by which menadione enhances EGFR activity (hTCEpi immunoblot); format: cell-based; set-up: Kinetics of EGFR degradation: dose or concentration left out as unconfirmed
Method: […] Cells were then incubated with 8.0 nM (50 ng/ml) EGF for 0-3 hours. The cells were lysed and the lysates were resolved by SDS-PAGE, and immunoblotted for phosphorylated EGFR (pY1068), total EGFR, or α-tubulin.

[4] = Ocular pharmacokinetics of formulations, Example 20-5; format: in vivo, Dutch Belted rabbits
Method: The study design (Table 19-1) consisted of forty-seven (47) Dutch Belted rabbits, each receiving a 30 μL bilateral topical ocular dose. Various suspension formulations of the present application were evaluated and compared against a cyclodextrin-based eye drops solution (Control Group 1, Table 19-1). Formula II or Compound-I was used in the test suspensions as well as the Eye Drops solution.
Ocular sampling occurred one hour following the first daily dose on Day 5 for all groups. Whole blood samples using K2EDTA as an anticoagulant were collected from all animals on Day 5, 1 hour post dose. The whole blood was placed on ice until samples were spun in a centrifuge to separate the plasma. Aqueous humor, conjunctiva, cornea, central retina, peripheral retina, central choroid, and peripheral choroid samples were collected following necropsy. Samples were then frozen at −70° C. or lower. For all Groups 1-15, plasma, central retina, central choroid, and cornea samples were assayed. For Group 5 only, samples were analyzed for Vitamin K3.
An analytical method for the analysis of Vitamin K3 was determined in plasma, central retina, central choroid, and cornea samples from Group 5 animals. A calibration curve prepared in control vitreous humor was used to determine the concentration of Vitamin K3. Internal standard (IS) responses were inconsistent for the central choroid and plasma samples. Thus, positive plasma results were likely due to the reduced IS response.

[5] = Ocular pharmacokinetics of formulations, Example 20-3; format: in vivo, Dutch Belted rabbits; settings: 1.0 μM Vit K3 suspension, 30 μL/eye/dose QD for 4 Days, 1 hr post dose on Day 5; for Vitamin K3 concentration in Cornea: LLOQ = 2.91 μM; for Vitamin K3 concentration in Central Choroid: LLOQ = 43.6 μM
Method: The study design (Table 17-1) consisted of thirty-nine (39) Dutch Belted rabbits, each receiving a 30 μL bilateral topical ocular dose. Various suspension formulations of the present application were evaluated and compared against two control formulations: a) a cyclodextrin-based eye drops solution (Control Group 13, Table 17-1), and b) a pilot suspension formulation used in previous rabbit pharmacokinetic studies, (Group 10, Table 17-1). Formula II or Compound-I was used in the test suspensions, whereas the Eye Drops solution formulation is derived with the Compound-I.
Ocular sampling occurred one hour following the first daily dose on Day 5 for all groups. Whole blood samples using K2EDTA as an anticoagulant were collected from all animals on Day 5, 1 hour post dose. The whole blood was placed on ice until samples were spun in a centrifuge to separate the plasma. Aqueous humor, conjunctiva, cornea, central retina, peripheral retina, central choroid, and peripheral choroid samples were collected following necropsy. Samples were then frozen at −70° C. or lower. For all Groups 1-13, plasma, central retina, central choroid, and cornea samples were assayed.
Additionally, Vitamin K3 concentrations were determined in plasma, central retina, central choroid, and cornea samples for animals from Groups 8 and 9. A calibration curve prepared in control matrix was used to determine the concentration of Vitamin K3.

[6] = Group 8: Formula II 4 mg/mL, HPMC
[7] = Group 9: Formula II 4 mg/mL, Pluronic

T1 sequence (P00533 25-1210): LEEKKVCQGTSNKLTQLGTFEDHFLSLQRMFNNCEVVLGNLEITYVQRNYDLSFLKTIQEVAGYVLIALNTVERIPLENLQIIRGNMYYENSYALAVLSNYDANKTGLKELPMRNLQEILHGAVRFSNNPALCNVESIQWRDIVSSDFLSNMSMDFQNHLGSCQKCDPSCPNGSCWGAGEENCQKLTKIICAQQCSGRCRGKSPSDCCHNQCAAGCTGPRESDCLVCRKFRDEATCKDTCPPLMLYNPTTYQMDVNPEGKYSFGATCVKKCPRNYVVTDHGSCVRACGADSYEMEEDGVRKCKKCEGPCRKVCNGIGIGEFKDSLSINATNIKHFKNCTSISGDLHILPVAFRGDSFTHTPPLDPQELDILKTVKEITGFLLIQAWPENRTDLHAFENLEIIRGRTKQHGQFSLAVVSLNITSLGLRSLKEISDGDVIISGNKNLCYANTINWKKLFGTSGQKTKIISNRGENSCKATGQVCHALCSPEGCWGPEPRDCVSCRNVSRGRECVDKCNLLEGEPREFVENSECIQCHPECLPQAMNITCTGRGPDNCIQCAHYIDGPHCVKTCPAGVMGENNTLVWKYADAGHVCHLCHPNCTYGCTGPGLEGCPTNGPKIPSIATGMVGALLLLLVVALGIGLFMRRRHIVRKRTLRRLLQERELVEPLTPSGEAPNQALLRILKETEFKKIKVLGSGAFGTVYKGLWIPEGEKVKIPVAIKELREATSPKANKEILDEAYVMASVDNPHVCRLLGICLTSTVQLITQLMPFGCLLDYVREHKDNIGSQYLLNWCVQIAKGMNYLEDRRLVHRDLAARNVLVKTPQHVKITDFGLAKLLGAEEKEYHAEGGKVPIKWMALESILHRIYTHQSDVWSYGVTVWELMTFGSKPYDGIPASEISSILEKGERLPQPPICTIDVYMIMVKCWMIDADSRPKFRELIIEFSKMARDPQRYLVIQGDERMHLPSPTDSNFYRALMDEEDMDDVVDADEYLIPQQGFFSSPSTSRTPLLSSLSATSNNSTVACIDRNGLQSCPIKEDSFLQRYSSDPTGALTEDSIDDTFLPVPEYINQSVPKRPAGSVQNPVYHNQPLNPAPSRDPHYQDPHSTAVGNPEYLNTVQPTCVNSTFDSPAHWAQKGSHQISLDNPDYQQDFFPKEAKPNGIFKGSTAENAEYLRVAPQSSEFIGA

In the case of CC1=CC(=O)c2ccccc2C1=O [menadione], the “Effect on inhibition of in vitro wound healing by a compound of Formula I or II” value (hTCEpi cells) is reported as “reversed”, the “Effect on corneal epithelial wound healing after pre-treatment with a compound of Formula I or II (10 μM)” value (corneas of C57/Bl mice) is reported as “reversed the effects” and the “Effect on Formula I or II compound-mediated EGFR inhibition” value (EGFR [1]) is reported as “overcome”. For the same compound, the “Effect on Formula I or II compound-mediated EGFR inhibition” value (EGFR [1]; listed as vitamin K3) was “most effectively attenuated”, the Stability of suspension [2] was “short term stability” and the “Basal EGFR phosphorylation and EGFR dephosphorylation” value (EGFR [3]; 0.3 or 3.0 μM, 4 hours, 50 ng/ml EGF 0-3 hours) was “did not change”. For the same compound, the “Kinetics of EGFR degradation” value (EGFR [3]; menadione) was “slowed the kinetics of EGFR degradation”, the “Vitamin K3 in central retina and cornea samples” value ([4]; Group 5) was “no quantitative results” and the “Vitamin K3 Cornea concentration” value ([4]; Group 5: Compound-I 4 mg/mL suspension with Vitamin K3 1 μM, QD for 4 days, 1 hr post dose on Day 5, LLOQ = 0.145 μM) was “<LLOQ”. The “Vitamin K3 Central Retina concentration” value ([4]; Group 5: Compound-I 4 mg/mL suspension with Vitamin K3 1 μM, QD for 4 days, 1 hr post dose on Day 5, LLOQ = 0.581 μM) was “<LLOQ”, the “Vitamin K3 concentration in Cornea” value [5, 6] was “<LLOQ” and the “Vitamin K3 concentration in Central Choroid” value [5, 6] was “<LLOQ”. For the same compound, the “Vitamin K3 concentration in Plasma” value ([5]; Group 8: Formula II 4 mg/mL, HPMC, average n = 3, LLOQ = 0.291 μM) was “<LLOQ”, the “Vitamin K3 concentration in Cornea” value [5, 7] was “<LLOQ” and the “Vitamin K3 concentration in Central Retina” value ([5]; Group 9: Formula II 4 mg/mL, Pluronic, LLOQ = 11.6 μM) was “<LLOQ”. The “Vitamin K3 concentration in Central Choroid” value [5, 7] was “<LLOQ”.
